Assay [1] has as its system T cell proliferative responses induced by ConA in PBMC. In words: Ex vivo human T cell-proliferation assay, ConA control. To be noted: PBMC of allergic donors, a pan-T cell mitogen. It is filed as cell-based. The source says: Reagents. […] Cell culture.
Assay [2] deals with human T cell proliferative responses to house dust mite extracts (Der p, Der f) in PBMC. In words: Ex vivo human T cell-proliferation assay, house dust mite extracts. It is filed as cell-based. To be noted: seven days; for human T cell proliferative responses to Der f: PBMC from an allergy donor, Der f extract, titrated doses of compound, FIG. 3. The text has this: This proliferation consisted primarily of allergen-specific CD4 T cells.

For assay [3], the system named is invariant chain (Ii) degradation, p10Ii fragment, in PBMC from human blood. In words: Monitoring cathepsin S inhibition in human blood (p10Ii Western blot). It is filed as cell-based. To be noted: incubation for 24 h, SDS-PAGE / Western blot. As for the experimental part:
The effect of in vivo administration of cathepsin S inhibitors, in a clinical trial setting, can be monitored by measuring accumulation of an intermediate degradation product of invariant chain (Ii), i.e. the p10Ii fragment, in blood of dosed subjects. After administration of a cathepsin inhibitor for a certain period of time, for example, between 0.01 and 50 mg/kg/day, to result in a blood concentration of between 1 nM-10 μM, for 16-30 h, blood is drawn and white blood cells are purified, e.g. either by lysis of red blood cells or by a Ficoll-Hypaque gradient centrifugation. Whole cell lysates of WBC are then made and analyzed by either a Western blot assay or an ELISA assay. For the Western blot assay, cell lysates are first resolved on SDS-PAGE gels. After transferring to nitrocellulose membranes, Ii and its intermediate degradation products, including the p10Ii, can be detected using a mouse mAb against Ii, e.g. Pin.1, or rabbit polyclonal antibodies specific for the C-terminus of the p10Ii fragment or against the entire p10Ii fragment. For ELISA assay, a pair of antibodies against Ii, including Pin1.1, and a rabbit polyclonal antibody or a mouse monoclonal antibody specific for p10Ii, can be used. The same assay can also be applied to monitor the effect of cathepsin S inhibitors in vivo in animal studies, for example in monkeys, dogs, pigs, rabbits, guinea pigs, and rodents.
A general note: In western blotting, separated proteins are transferred to a membrane and probed.

In assay [4] the test system is human T cell proliferative responses to ragweed extracts (short, giant) in PBMC. In words: Ex vivo human T cell-proliferation assay, ragweed extracts. To be noted: PBMC of ragweed-allergic donors, short and giant ragweed extracts, FIG. 2B.
The test system of assay [5] is allergic volunteers. Put plainly: Monitoring in vivo inhibition of allergenic response (cutaneous reactions). To be noted: allergens deposited subcutaneously.

Take `N#Cc1ccccc1N1CCN(CC(Cn2nc(-c3ccc(I)cc3)c3c2CCN(C(N)=O)C3)OC(N)=O)CC1` (stereo not shown) [Example 11, Carbamic acid 1-[5-carbamoyl-3-(4-iodo-phenyl)-4,5,6,7-tetrahydro-pyrazolo[4,3-c]pyridin-1-ylmethyl]-2-[4-(2-cyano-phenyl)-piperazin-1-yl]-ethyl Ester]: the “T cell proliferative responses induced by ConA” value in assay [1] is “but not ConA”. Moreover, the “human T cell proliferative responses to Der f” value in assay [2] was “inhibition”.
The matching figures for `CS(=O)(=O)N1CCc2c(c(-c3ccc(I)cc3)nn2CC(O)CN2CCN(c3ccccc3C#N)CC2)C1` (stereo not shown) [Example 36, 2-(4-{2-Hydroxy-3-[3-(4-iodo-phenyl)-5-methanesulfonyl-4,5,6,7-tetrahydro-pyrazolo[4,3-c]pyridin-1-yl]-propyl}-piperazin-1-yl)-benzonitrile]: “but not ConA” and “inhibition”.
On to `CC(C)C[C@H](NC(=O)N1CCOCC1)C(=O)N[C@H](/C=C/S(=O)(=O)c1ccccc1)CCc1ccccc1` [LHVS, 4-morpholinecarboxamide, N-[(1S)-3-methyl-1-[[[(1S,2E)-1-(2-phenylethyl)-3-(phenylsulfonyl)-2-propenyl]amino]carbonyl]butyl]-], for which the “T cell proliferative responses induced by ConA” value in assay [1] is on record as “not affected”. Further, the “T cell proliferation (3H-thymidine incorporation) induced by HDM extracts” value in assay [2] (PBMC of HDM-allergic donors, Der p or Der f extracts, FIG. 1B) is listed as “strongly inhibited”. For the same compound, the “p10Ii fragment accumulation (block in the degradation of Ii)” value in assay [3] is on record as “the p10Ii fragment was seen”. Also, in assay [4], the “T cell proliferation (3H-thymidine incorporation) induced by ragweed extracts” value is “strongly inhibited”.
As for `C[C@]12C=CC(=O)C=C1CC[C@@H]1[C@@H]2C(=O)C[C@@]2(C)[C@H]1CC[C@]2(O)C(=O)CO` [Prednisone, prednisone], in assay [5] (15 min), the “immediate weal and flare response” value is “inhibit both the immediate and the late phase responses”. In addition, the “late phase response (induration)” value in assay [5] (6 h and 24 h) was “inhibit both the immediate and the late phase responses”.

These data come from patent US20030073672A1, “Method for treating allergies using substituted pyrazoles” (priority 2001, published 2003).
